# Results taken from patent US12584113B2, “Method of cell culture” (Pfizer Inc., priority 2014, dated 2026).
# Tested on: GS-CHO cells
# Experiment: Spike-in of single purified metabolites into Medium A, growth of GS-CHO cells monitored 5 or 6 days
# Format: cell-based, Chinese hamster
# Procedure: GS-CHO cells producing a recombinant antibody were inoculated at low viable cell densities (0.1E6 cells/mL) in various conditions in 5 ml volume, 6-well plate cultures. […] The pH of the Medium A, spiked-in with any one of the nine metabolites or any combination of the nine metabolites, was adjusted to 7 before inoculating the cells (on day 0).
# For indolelactate, the stock solution (500 mM) was prepared in DMSO. […] All the conditions were run in duplicates or triplicates. Growth of the cells in above described conditions was monitored for 5 or 6 days.
# [1] = metabolite alone at concentrations higher than 0.5 mM or 1 mM
compound,measurement,setting,value
CCC(O)C(=O)O (stereo not shown) [2-hydroxybutyric acid],effect on growth of cells,[1],Modest inhibition of growth
O=C(O)C(O)Cc1ccc(O)cc1 (stereo not shown) [3-(4-hydroxyphenyl)lactate],effect on growth of cells,[1],Modest inhibition of growth
O=CO [Formate],effect on growth of cells,metabolite alone at concentrations 2 mM and beyond,negative effect on growth
N[C@@H](CCS)C(=O)O [Homocysteine],effect on growth of cells,[1],Modest inhibition of growth
O=C(O)c1c[nH]c2ccccc12 [Indolecarboxylic acid],effect on growth of cells,metabolite alone at concentrations of 1 mM or lower,potent negative effect on growth of cells
O=C(O)C(O)Cc1c[nH]c2ccccc12 (stereo not shown) [Indolelactate],effect on growth of cells,"metabolite alone at concentrations of 3 mM or below, DMSO control included",little or no effect on growth of cells
Phenyllactate [Phenyllactate (PLA)],effect on growth of cells,metabolite alone at 1 mM concentration,mild effect on growth of cells
